Test systems include COLO 205 colon; IGROV1 ovarian; M14 melanoma; MOLT-4 leukemia; NCI-H23 lung; NCI/ADR-RES ovarian; OVCAR-3 ovarian; SK-MEL-5 melanoma; U251 CNS; HCC-2998 colon.
Common to all, as to test: growth of human tumour cells (NCI), 48 h

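96-well plates; 48 h exposure; 5 concentrations. Endpoints by linear interpolation between flanking doses. Not reached: highest tested concentration assigned. The concentration for 50% growth inhibition is given as GI50. TGI: total growth inhibition.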

`COC(=O)C1C(O)C(C(=O)OC)C(C)N(C)C1C` (centres undefined): the TGI with COLO 205 colon, in the assay with IGROV1 ovarian, in the assay with M14 melanoma, in the assay on MOLT-4 leukemia, in the assay with NCI-H23 lung and with NCI/ADR-RES ovarian was > 100 µM throughout. In addition, the TGI in the assay on OVCAR-3 ovarian, in the assay with SK-MEL-5 melanoma and with U251 CNS was > 100 µM throughout.
With `Nc1cc2c(cc1Br)[nH]c(=O)c1ccccc12`, the GI50 with COLO 205 colon is 3.34 µM; with HCC-2998 colon, 5.5 µM; with IGROV1 ovarian, 3.61 µM; in the assay on M14 melanoma it was 2.92 µM; in the assay with MOLT-4 leukemia, 4.03 µM; in the assay on NCI-H23 lung, 1.8 µM. The figures for the GI50 with NCI/ADR-RES ovarian, in the assay on OVCAR-3 ovarian and in the assay with SK-MEL-5 melanoma were 9.25 µM, 2.14 µM and 1.46 µM, respectively. Besides, the TGI in the assay on HCC-2998 colon was 17.1 µM; in the assay on IGROV1 ovarian, 23.1 µM; with M14 melanoma, 10 µM; with MOLT-4 leukemia, 43 µM; in the assay on NCI-H23 lung, 5.29 µM; in the assay with NCI/ADR-RES ovarian, 35.1 µM. In addition, the TGI in the assay on OVCAR-3 ovarian turned out to be 6.45 µM; in the assay on SK-MEL-5 melanoma it was 2.79 µM.
Turning to `CCC/C=C/C=C/C1CC(O)C(O)C(=O)C1CO` (centres undefined), the TGI in the assay on COLO 205 colon, in the assay on HCC-2998 colon, in the assay with IGROV1 ovarian, in the assay with M14 melanoma, in the assay on NCI-H23 lung and in the assay on NCI/ADR-RES ovarian was > 100 µM each time. Besides, the TGI with OVCAR-3 ovarian, with SK-MEL-5 melanoma and in the assay on U251 CNS was > 100 µM throughout.
On to `COc1ccc(C(=O)c2cc(OC)c(OC)c(OC)c2)cc1OC`, for which the TGI in the assay with HCC-2998 colon was 5.79 µM; in the assay on IGROV1 ovarian, > 100 µM; with M14 melanoma, > 100 µM; in the assay with MOLT-4 leukemia, > 100 µM; with NCI-H23 lung, > 100 µM; with NCI/ADR-RES ovarian, > 100 µM. Besides, the TGI is 9.47 µM with OVCAR-3 ovarian, > 100 µM with SK-MEL-5 melanoma and > 100 µM in the assay with U251 CNS.
As to `COc1cc(/C=C\c2cc(OC)c(OC)c(OC)c2)cc(N/C=C\C(=O)c2c[nH]c3ccccc23)c1OC`, the GI50 with COLO 205 colon is 1.51 µM; in the assay with HCC-2998 colon, 3.34 µM; in the assay on IGROV1 ovarian, 1.23 µM; in the assay with M14 melanoma it was 2.87 µM; in the assay on NCI-H23 lung it was 3.75 µM; in the assay on NCI/ADR-RES ovarian it was 3.48 µM. Further, the figures for the GI50 in the assay on OVCAR-3 ovarian, with SK-MEL-5 melanoma and with U251 CNS were 1.72 µM, 3.14 µM and 3.84 µM, respectively. Further, the TGI was determined as 3.2 µM in the assay on COLO 205 colon; 10.5 µM in the assay on HCC-2998 colon; 3.56 µM with IGROV1 ovarian; 12.6 µM in the assay on M14 melanoma; 16.2 µM in the assay on NCI-H23 lung; 19.3 µM in the assay with NCI/ADR-RES ovarian. Besides, the TGI with OVCAR-3 ovarian came to 3.21 µM; in the assay with SK-MEL-5 melanoma, 12.6 µM; in the assay on U251 CNS it was 15.7 µM.
For `CC1CC(O)C(=O)C(O[C@@H]2C[C@@H]3CC[C@@H]4[C@H](CC[C@]5(C)C(C6=CC(=O)OC6)CC[C@]45O)[C@@]3(C=O)C[C@H]2O)O1` (some centres undefined), the TGI is 0.491 µM in the assay with COLO 205 colon; 0.243 µM in the assay with HCC-2998 colon; 0.178 µM in the assay with M14 melanoma; 0.0991 µM in the assay on MOLT-4 leukemia; 0.0565 µM in the assay on NCI-H23 lung; 0.0678 µM with NCI/ADR-RES ovarian. For the same compound, the TGI in the assay on OVCAR-3 ovarian is 0.0346 µM; in the assay with SK-MEL-5 melanoma, 0.0174 µM; in the assay with U251 CNS, < 0.0486 µM.
Consider `CC1(C)CN=C(NN=C(/C=C/c2ccc(C(F)(F)F)cc2)/C=C/c2ccc(C(F)(F)F)cc2)NC1`, for which the GI50 in the assay on COLO 205 colon was 1.35 µM; in the assay with HCC-2998 colon it was 1.41 µM; with IGROV1 ovarian it was 1.44 µM; with M14 melanoma it was 1.78 µM; in the assay with NCI-H23 lung it was 1.56 µM; in the assay with NCI/ADR-RES ovarian it was 1.4 µM. The GI50 was 1.67 µM in the assay on OVCAR-3 ovarian, 1.6 µM in the assay with SK-MEL-5 melanoma and 1.2 µM with U251 CNS. Further, the TGI in the assay on COLO 205 colon was 2.85 µM; with HCC-2998 colon, 2.92 µM; in the assay with IGROV1 ovarian it was 2.88 µM; in the assay with M14 melanoma, 3.5 µM; in the assay with NCI-H23 lung it was 3.23 µM; in the assay on NCI/ADR-RES ovarian it was 3.03 µM. Moreover, the figures for the TGI in the assay on OVCAR-3 ovarian, in the assay with SK-MEL-5 melanoma and in the assay on U251 CNS were 3.05 µM, 3.11 µM and 2.47 µM, respectively.
Take `CCc1ccc2c(c1)C(=O)c1c-2n(CCCN=[N+]=[N-])c(=O)c2cc([N+](=O)[O-])ccc12`: the GI50 in the assay with COLO 205 colon, in the assay with HCC-2998 colon, with IGROV1 ovarian, in the assay with M14 melanoma, in the assay on NCI-H23 lung and with NCI/ADR-RES ovarian was > 50 µM throughout. In addition, the GI50 in the assay on OVCAR-3 ovarian, with SK-MEL-5 melanoma and with U251 CNS was > 50 µM in each case. Moreover, the TGI in the assay with COLO 205 colon, with HCC-2998 colon, in the assay on IGROV1 ovarian, in the assay with M14 melanoma, with NCI-H23 lung and in the assay with NCI/ADR-RES ovarian was > 50 µM throughout. Also, the TGI in the assay on OVCAR-3 ovarian, in the assay with SK-MEL-5 melanoma and in the assay with U251 CNS was > 50 µM in each case.
Consider `COc1ccc(C(CC(=O)c2ccc3c(c2)OCO3)c2c(O)c3ccccc3oc2=O)cc1OC` (centres undefined), for which the TGI with COLO 205 colon, with HCC-2998 colon, in the assay with IGROV1 ovarian, in the assay with MOLT-4 leukemia, with NCI-H23 lung and with NCI/ADR-RES ovarian was > 100 µM in each case. Besides, the TGI in the assay on OVCAR-3 ovarian, in the assay on SK-MEL-5 melanoma and in the assay with U251 CNS was > 100 µM in each case.
For the compound `COc1ccc(-c2nc(-c3cc(OC)cc(OC)c3)[nH]c2-c2ccc(OC)cc2)cc1`, the GI50 in the assay with COLO 205 colon was 3.68 µM; in the assay with HCC-2998 colon, 5.96 µM; in the assay with IGROV1 ovarian, > 100 µM; in the assay on M14 melanoma, 8.37 µM; in the assay with MOLT-4 leukemia it was 2.8 µM; with NCI-H23 lung, 4.72 µM. In addition, the results for the GI50 with NCI/ADR-RES ovarian, in the assay on OVCAR-3 ovarian and in the assay with SK-MEL-5 melanoma were 9.76 µM, 5.95 µM and 1.85 µM, respectively. Besides, the TGI with COLO 205 colon was > 100 µM; in the assay on HCC-2998 colon it was > 100 µM; in the assay with IGROV1 ovarian, > 100 µM; in the assay with M14 melanoma, > 100 µM; in the assay with MOLT-4 leukemia, 8.15 µM; with NCI-H23 lung, > 100 µM. The TGI in the assay on NCI/ADR-RES ovarian was > 100 µM; in the assay on OVCAR-3 ovarian it was > 100 µM; in the assay on SK-MEL-5 melanoma it was 3.7 µM.

The record behind these values is PubChem BioAssay (NCI).
